Assay results as given in ChEMBL document CHEMBL4888484, “Replenishing the malaria drug discovery pipeline: Screening and hit evaluation of the MMV Hit Generation Library 1 (HGL1) against asexual blood stage Plasmodium falciparum ,using a nano luciferase reporter read-out” (2022).

Experiments:
[1] = tested on: Plasmodium falciparum; assay: Hit confirmation in dose-response curve in NF54 nanoGlo assay, at 72h; format: functional, organism-based, Erythrocyte; parameters: timepoint 72 hour; details: Plasmodium falciparum, NF54, Erythrocyte, 72 h
[2] = tested on: Plasmodium falciparum; assay: Hit confirmation in dose-response curve in NF54 pLDH assay, at 72h; format: functional, organism-based; parameters: timepoint 72 hour; details: NF54, Erythrocyte
[3] = tested on: Plasmodium falciparum; assay: Hit confirmation in dose-response curve in Dd2 pLDH assay, at 72h; format: functional, organism-based; parameters: timepoint 72 hour; details: Dd2, Erythrocyte
[4] = tested on: Plasmodium falciparum; assay: Hit confirmation in dose-response curve in NF54 nanoGlo assay, at 12h; format: functional, organism-based, Erythrocyte; parameters: timepoint 12 hour; details: Plasmodium falciparum, NF54, Erythrocyte, 12 h
[5] = Hit confirmation in dose-response curve in HepG2 cytotoxicity assay, at 72h; format: toxicity, cell-based; parameters: timepoint 72 hour; details: human, HepG2 cells

SMILES | IC50 [1] [µM] | IC50 [2] [µM] | IC50 [3] [µM] | IC50 [4] [µM] | IC50 at 72 h [5] [µM]
COc1cccc(-c2nc(C)c(C(=O)Nc3nc(C(C)C)n[nH]3)s2)c1 | 1.48 | > 10 | > 10 | 0.575 | > 10
COC[C@H](NCCc1cc(F)cc2c1OCOC2)C1CC1 | 0.661 | 0.891 | > 10 | > 10 | > 10
Nc1nc2c(s1)CN(CCc1ccccc1)CC2 | 3.98 | 6.92 | 5.62 | > 10 | > 10
COc1ccc(CC(=O)N2N=C(C)C[C@]2(O)c2cccnc2)cc1 | 2.95 | > 10 | > 10 | 1.02 | > 10
CC(C)(C)n1nc2nc(NCCN3CCCCC3)nc(-c3ccc(F)c(Cl)c3)c2c1N | 1.62 | 2.88 | 2.82 | 6.03 | > 10
CCc1ccc(CN2CCC[C@H](c3ncc[nH]3)C2)nc1 | 1.15 | 1.55 | 1.78 | 10.7 | > 10
O=C(Nc1cc(-c2onc3c2CCCC3)cc(C(F)(F)F)c1)c1cncc(Br)c1 | 1.2 | 3.24 | 2.75 | 1.26 | > 10
CC1(C)CCC(Nc2ccc(C(N)=O)nn2)CC1 | 0.49 | 0.0871 | > 10 | > 10 | > 10
O=S(=O)(Nc1cccc2cccnc12)c1cccs1 | 1.82 | 5.62 | 3.24 | 4.57 | 10.7
O=C(CCc1ccc(Cl)c(C(F)(F)F)c1)N1CC[C@H](N2CCc3ccccc3C2)C1 | 5.5 | 5.62 | 8.32 | > 10 | > 10
CCOC(=O)c1cc(F)cc(S(=O)(=O)Nc2ccnc3ncnn23)c1 | 5.89 | > 10 | > 10 | 1.35 | > 10
Nc1nc(N2CCN(c3ccc(F)c(Cl)c3)CC2)cc([C@H]2C[C@@H](N)C2)n1 | 2.75 | 5.75 | 6.31 | 6.31 | > 10
Cn1nccc1/C=C1\CC2C3CCc4cc(O)ccc4C3CCC2(C)C1O (stereo not given) | > 10 | > 10 | > 10 | > 10 | > 10
CCCCCn1c(NCc2cc(Cl)ccc2O)nc2ccccc21 | 3.63 | 8.71 | 7.41 | 6.76 | > 10
O=C(Nc1ccccc1Cl)N1CCC(N2CCc3sccc3C2)CC1 | 3.72 | 3.55 | 4.57 | > 10 | > 10
CCc1ccc(-c2cc3n(n2)C[C@@](C)(C(=O)NC2CCCCC2)N(c2cc(C)cc(C)c2)C3=O)cc1 | 2.29 | 10 | 7.59 | 5.75 | > 10
Cc1ccc(NC(=O)N2CCCN(c3ccc(NC(=O)c4cccs4)cc3C(=O)NCc3ccc(F)cc3)CC2)cc1 | 3.63 | 7.94 | > 10 | 6.92 | > 10

SMILES | IC50 [1] [µM] | IC50 [2] [µM] | IC50 [3] [µM] | IC50 [4] [µM] | IC50 at 72 h [5] [µM]
COc1ccc2c(c1)OC13CCN(C)CC1C2C(C(=O)c1ccccc1OC)C(=O)N3 (stereo not given) | 2 | > 10 | > 10 | 1.05 | > 10
Oc1cccc(CN[C@H]2CCCc3occc32)c1Cl | 1.58 | 2.75 | 2.75 | 2.04 | > 10
CC(C)N1CCC2(CC1)N=C(c1ccc3c(c1)OCO3)C[C@@H](c1cc(Cl)ccc1O)N2 | 3.8 | > 10 | 8.32 | 4.27 | > 10
COc1ccc(-c2csc(-n3cc(C4=CCN(CCO)CC4)cn3)n2)cc1 | 5.13 | 5.5 | > 10 | > 10 | > 10
Cc1oc2ncn(CCN3CCCC3)c(=O)c2c1C(=O)Nc1ccc(C#N)cc1 | 2.63 | 10.7 | 6.46 | 2.75 | > 10
CC(C)Nc1nc2nonc2n2cnnc12 | 1.95 | 4.37 | 3.55 | 4.47 | > 10
Oc1c([C@@H](c2ccccn2)N2CCCC2)ccc2cccnc12 | 2.14 | 7.76 | 2.34 | 3.55 | > 10
COc1ccc(-c2cc3ncc(C(=O)c4cc(Cl)ccc4O)cn3n2)cc1 | 2.29 | 3.89 | 3.63 | 7.24 | > 10
CCCOc1cccc2c(NC3CCN(CCOC)CC3)ccnc12 | 1.78 | 2.24 | 1.58 | 3.24 | > 10
Cc1nnc(CNC(=O)Nc2cccc3c4c(oc23)CCCC4)o1 | 2.14 | 2.19 | 2.63 | 2.88 | > 10
CCNc1ccnc(NCc2nc(-c3cccc(F)c3)c(-c3ccccn3)[nH]2)n1 | 3.16 | 5.75 | > 10 | 8.71 | > 10
O=c1[nH]c(=O)n(S(=O)(=O)c2ccccc2)cc1F | 0.00275 | 0.00347 | > 10 | 2.04 | > 10
CNc1nc(Nc2ccc3c(c2)OCCO3)nc2ccccc12 | 0.851 | 1.17 | 1.17 | 1.91 | > 10
COc1ccc(-c2nn3c(N4CCN(CC=Cc5ccccc5)CC4)cc(C)nc3c2C)cc1OC | 1.74 | 7.76 | 5.37 | 3.89 | > 10
Cc1cc(=O)[nH]c(-n2nc(C3CC3)cc2NC(=O)c2ccc(C(C)(C)C)cc2)n1 | 1.86 | > 10 | > 10 | > 10 | > 10
CC1(C)C(NCC(O)COc2ccc(F)c(F)c2)[C@@H]2CCC[C@@H]21 (stereo not given in full) | 1.78 | 3.24 | 3.24 | 2.95 | > 10
COc1cc(F)c([C@H](C)NC(=O)N(C)Cc2ccco2)cc1OC | 1.86 | > 10 | 10.7 | 0.891 | > 10

The next lines start with results.

IC50 [1] [µM] | IC50 [2] [µM] | IC50 [3] [µM] | IC50 [4] [µM] | SMILES | IC50 at 72 h [5] [µM]
2.63 | 7.41 | 6.92 | 5.5 | Cc1ccc(N2C(=O)c3ccccc3[C@@H]2c2c[nH]c3ccccc23)cc1 | > 10
0.631 | 1.32 | 0.955 | 2.19 | c1ccc(C2=NN(c3ccc(-c4cc(-c5ccccc5)[n+](-c5ccccc5)c(-c5ccccc5)c4)cc3)[C@H](c3ccccc3)C2)cc1 | 4.07
9.55 | > 10 | > 10 | > 10 | COc1ccc(-c2cc(-c3ccccc3)nc(N3CCC(C)CC3)n2)cc1 | > 10
3.47 | 6.61 | 3.55 | 7.94 | CC1CCN(Cc2ccc(CNCc3c[nH]nc3-c3ccc(F)cc3)cc2)CC1 | > 10
1.82 | 2.69 | 2.4 | 2.63 | CCc1cccc(NC(=O)Cn2ccc3ccc(-c4nnc(C)o4)cc32)c1 | > 10
0.794 | 1.41 | 0.776 | > 10 | COc1ccc(-[n+]2c(-c3ccccc3)cn3c2CCC3)cc1 | > 10
2.75 | 9.55 | 7.41 | > 10 | CC(=O)Nc1c(-c2ccc(C)cc2)c(C)nn1-c1ccc(C(=O)Nc2cc(C)ccn2)cc1 | > 10
0.49 | 0.263 | 1.41 | > 10 | CC(=O)Nc1ccc(-c2cn3c4ccccc4ccc3[n+]2C)cc1 | > 10
1.86 | 3.47 | 5.37 | 9.33 | Cc1ccc(CC[C@H]2Nc3ccccc3C(c3ccccc3)(c3ccccc3)O2)o1 | > 10
2.14 | > 10 | > 10 | 3.63 | O=c1c2ccccc2nc2cc(-c3ccc(O)cc3)c(-c3ccccc3)nn12 | > 10
0.407 | 0.676 | 0.437 | 5.01 | C[n+]1ccccc1/C=C/c1c[nH]c2ccccc12 | 7.94
2.57 | 6.46 | 6.46 | 8.13 | S=c1cc(-c2ccccc2)n(Cc2ccco2)c2c1CCCC2 | > 10
2.95 | 2.95 | 3.16 | > 10 | COc1ccc(C2=CN(CC(=O)c3ccc(Cl)cc3)C3=CCCCCN23)cc1 | > 10
4.07 | > 10 | > 10 | 0.832 | COc1cccc(N2C(=O)C[C@]3(CC3(c3ccccc3)c3ccccc3)C2=O)c1 | > 10
8.13 | > 10 | > 10 | 10.5 | c1ccc(-c2cn3c(n2)c(-c2ccc4ccccc4n2)cc2ccccc23)cc1 | > 10
1.78 | 2.63 | 1.07 | 10.2 | CNc1nc(NCc2ccccc2)nc2ccccc12 | > 10
4.47 | > 10 | > 10 | 1.7 | COc1ccc(NC(=O)C2(N(Cc3ccccc3)C(=O)Cn3nnc4ccccc43)CCCCC2)cc1 | > 10
